Source: ChEMBL document CHEMBL1136226, “Design and synthesis of new benzimidazole-arylpiperazine derivatives acting as mixed 5-HT1A/5-HT3 ligands” (Bioorg Med Chem Lett, 2003)

Experiments:
[1] = molecular target: T1, 5-hydroxytryptamine receptor 1A (Rattus norvegicus, UniProt P19327); experiment: Displacement of [3H]8-OH-DPAT from 5-hydroxytryptamine 1A receptor of rat cerebral cortex membranes; assay type: cell membranes, Membrane
T1 sequence (P19327 whole entry): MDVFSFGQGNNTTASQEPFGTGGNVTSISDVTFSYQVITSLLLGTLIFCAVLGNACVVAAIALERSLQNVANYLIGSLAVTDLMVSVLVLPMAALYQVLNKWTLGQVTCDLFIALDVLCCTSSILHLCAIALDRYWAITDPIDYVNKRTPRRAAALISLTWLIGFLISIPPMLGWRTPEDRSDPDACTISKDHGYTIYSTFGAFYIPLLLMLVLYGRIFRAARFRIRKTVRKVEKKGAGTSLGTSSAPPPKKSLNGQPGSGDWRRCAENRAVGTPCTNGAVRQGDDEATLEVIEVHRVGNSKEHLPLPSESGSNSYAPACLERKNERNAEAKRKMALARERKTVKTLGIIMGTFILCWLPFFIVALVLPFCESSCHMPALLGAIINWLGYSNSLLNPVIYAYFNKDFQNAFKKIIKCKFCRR

[2] = molecular target: T2, Serotonin 3 (5-HT3) receptor (Rattus norvegicus, UniProt P35563+Q9JJ16); experiment: Binding affinity for 5-HT3 receptor by displacement of [3H]-LY 278584 in rat cerebral cortex membranes; assay type: cell membranes, Membrane
T2 sequence (P35563 whole entry): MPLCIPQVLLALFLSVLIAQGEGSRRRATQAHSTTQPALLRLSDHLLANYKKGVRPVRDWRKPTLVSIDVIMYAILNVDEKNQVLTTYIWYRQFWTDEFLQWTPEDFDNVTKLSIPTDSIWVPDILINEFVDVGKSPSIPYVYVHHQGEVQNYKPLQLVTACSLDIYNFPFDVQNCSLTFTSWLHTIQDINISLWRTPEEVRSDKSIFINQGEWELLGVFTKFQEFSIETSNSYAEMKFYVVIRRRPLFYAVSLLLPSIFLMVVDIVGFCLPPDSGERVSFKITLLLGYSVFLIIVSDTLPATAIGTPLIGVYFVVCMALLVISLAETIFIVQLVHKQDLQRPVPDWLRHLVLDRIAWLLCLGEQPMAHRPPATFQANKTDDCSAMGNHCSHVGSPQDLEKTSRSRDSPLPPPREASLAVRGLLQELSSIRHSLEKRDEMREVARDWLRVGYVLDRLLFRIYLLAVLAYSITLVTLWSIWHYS
T2 sequence (Q9JJ16 whole entry): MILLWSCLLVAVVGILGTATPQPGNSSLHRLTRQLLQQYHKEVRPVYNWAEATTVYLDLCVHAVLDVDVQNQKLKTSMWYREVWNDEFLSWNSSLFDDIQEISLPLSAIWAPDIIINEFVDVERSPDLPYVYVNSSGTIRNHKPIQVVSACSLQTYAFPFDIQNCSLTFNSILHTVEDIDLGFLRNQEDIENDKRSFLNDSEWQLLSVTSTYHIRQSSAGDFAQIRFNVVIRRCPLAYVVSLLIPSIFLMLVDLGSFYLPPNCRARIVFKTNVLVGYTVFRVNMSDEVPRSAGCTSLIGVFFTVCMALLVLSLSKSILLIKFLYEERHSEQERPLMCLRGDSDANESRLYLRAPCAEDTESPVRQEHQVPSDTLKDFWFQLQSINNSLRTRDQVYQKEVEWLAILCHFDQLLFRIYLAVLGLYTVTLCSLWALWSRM

Cavia porcellus = organism: Cavia porcellus; experiment: Blockade of isolated longitudinal muscle myenteric plexus contraction from guinea-pig ileum; assay type: functional; settings: Muscle tissue

SMILES | Ki [1] | Ki [2] | IC50 (Cavia porcellus)
O=C(NC1CN2CCC1CC2)c1cccc2nc(CN3CCN(c4ccccc4)CC3)[nH]c12 (centres undefined) | > 1 µM | 0.0231 µM | 
O=C(NC1CN2CCC1CC2)c1cccc2nc(CN3CCN(c4cccc5nc[nH]c45)CC3)[nH]c12 (centres undefined) | 0.148 µM | > 1 µM | 
CC(C)Oc1ccccc1N1CCN(Cc2nc3cccc(C(=O)NC4CN5CCC4CC5)c3[nH]2)CC1 (centres undefined) | 0.0344 µM | 0.0621 µM | 
CCOc1ccccc1N1CCN(Cc2nc3c(C(=O)NC4CN5CCC4CC5)cccc3[nH]2)CC1 (centres undefined) | 0.018 µM | 0.0272 µM | 0.19 µM
O=C(NC1CN2CCC1CC2)c1cccc2nc(CN3CCN(c4cccc(C(F)(F)F)c4)CC3)[nH]c12 (centres undefined) | > 10 µM | 0.0239 µM | 
COc1ccccc1N1CCN(Cc2nc3cccc(C(=O)NC4CN5CCC4CC5)c3[nH]2)CC1 (centres undefined) | 0.15 µM | 0.0103 µM | 
CCCOc1ccccc1N1CCN(Cc2nc3c(C(=O)NC4CN5CCC4CC5)cccc3[nH]2)CC1 (centres undefined) | 0.0561 µM | 0.0246 µM | 
CCCCOc1ccccc1N1CCN(Cc2nc3c(C(=O)NC4CN5CCC4CC5)cccc3[nH]2)CC1 (centres undefined) | 0.0459 µM | 0.0151 µM | 
O=C(NC1CN2CCC1CC2)c1cccc2[nH]c(CN3CCN(c4cccc(Cl)c4)CC3)nc12 (centres undefined) | > 10 µM | 0.0183 µM | 
O=C(NC1CN2CCC1CC2)c1cccc2[nH]c(CN3CCN(c4ccc5c(c4)OCO5)CC3)nc12 (centres undefined) | 0.467 µM | 0.024 µM | 
O=C(NC1CN2CCC1CC2)c1cccc2[nH]c(CN3CCN(c4cccc5ccccc45)CC3)nc12 (centres undefined) | > 1 µM | 0.0325 µM | 
Cc1nccn1CC1CCc2c(c3ccccc3n2C)C1=O (centres undefined) [ONDANSETRON] |  |  | 0.24 µM
